Here are results for 14 molecules from ChEMBL document CHEMBL1201862, “PubChem BioAssay data set” (2004).

Molecules are shown by their SMILES.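 Results reflect a 48-hour exposure of cells in 96-well plates to compound at five concentrations. GI50 = concentration required for 50% inhibition of growth.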 The source made the active and inactive calls. No stated cut-off is given here; in the data, active = GI50 up to about 1.1 µM and inactive = higher. A value given as a limit tells only on which side of the number the result lay.

Test systems include HL-60; UACC-257; SK-MEL-2; SNB-75; COLO 205; SR; OVCAR-4; CAKI-1; SF-268; TK-10; SF-295; NCI-H23; CCRF-CEM; MOLT-4; HCT-15; LOX IMVI; SNB-19.
Holding throughout (assay): NCI anticancer screen, dose series, 48 h

As for `N/C(=N\O)N/N=C/c1ccc(C(F)(F)F)cc1`, the GI50 was 10.9 µM (inactive) with HL-60; 32.2 µM (inactive) with UACC-257; 18.2 µM (inactive) in the test with SK-MEL-2; 26.7 µM (inactive) with SNB-75; 17.9 µM (inactive) with COLO 205; 6.85 µM (inactive) in the test with SR. Besides, the GI50 in the test on OVCAR-4 is 4.86 µM (inactive); with CAKI-1, 6.46 µM (inactive); in the test on SF-268 it was 6.61 µM (inactive); with TK-10, 23.9 µM (inactive); in the test on SF-295, 26 µM (inactive); in the test with NCI-H23, 15 µM (inactive). In addition, the GI50 in the test with CCRF-CEM is 9.68 µM (inactive).

`COC1OC(CO)C(O)C(O)C1Br` (configuration not stated): the GI50 with HL-60 was > 100 µM (inactive); in the test on UACC-257 it was > 100 µM (inactive); in the test with MOLT-4, > 100 µM (inactive); with COLO 205, > 100 µM (inactive); with SR, > 100 µM (inactive); in the test on HCT-15, more than 100 µM. Besides, the GI50 in the test with OVCAR-4, in the test on LOX IMVI, in the test with CAKI-1, in the test with SF-268, with TK-10 and in the test on SF-295 was > 100 µM (inactive) in each case. The GI50 with NCI-H23, with SNB-19 and in the test on CCRF-CEM was > 100 µM (inactive) in each case.

On to `NC(=O)CCC(NC(=O)Cc1ccccc1)C(=O)O.NC(CCC(=O)NC(=O)Cc1ccccc1)C(=O)O` (configuration not stated), for which the GI50 in the test on HL-60 was > 8130 µM (inactive); in the test with SK-MEL-2 it was > 8130 µM (inactive); with SNB-75 it was 1080 µM (inactive); in the test with MOLT-4, > 8130 µM (inactive); with COLO 205, > 8130 µM (inactive); with SR it was > 8130 µM (inactive). Besides, the GI50 in the test with OVCAR-4, in the test on CAKI-1, in the test with SF-268, with TK-10, in the test with SF-295 and in the test on NCI-H23 was > 8130 µM (inactive) in each case. For the same molecule, the GI50 with SNB-19 and with CCRF-CEM was > 8130 µM (inactive) in each case.

In the case of `COc1ccc2c3c(c(C(=O)c4ccccc4)oc13)CCC2`, the GI50 in the test with HL-60 was > 100 µM (inactive); with UACC-257, > 100 µM (inactive); in the test with SNB-75, 81.5 µM (inactive); in the test with MOLT-4, > 100 µM (inactive); in the test with COLO 205, > 100 µM (inactive); in the test with HCT-15, more than 100 µM. The GI50 is > 100 µM (inactive) in the test with OVCAR-4; > 100 µM (inactive) in the test on LOX IMVI; > 100 µM (inactive) in the test with CAKI-1; > 100 µM (inactive) in the test with TK-10; > 100 µM (inactive) in the test with SF-295; 20.8 µM (inactive) in the test on NCI-H23. Moreover, the GI50 in the test on SNB-19 and in the test with CCRF-CEM was > 100 µM (inactive) throughout.

For `Cn1c(C2CC(C)(C)c3c2c2ccccc2n3C)cc2ccccc21` (configuration not stated), the GI50 in the test with HL-60 was > 304 µM (inactive); in the test with UACC-257 it was 265 µM (inactive); in the test with SK-MEL-2, > 304 µM (inactive); with MOLT-4, > 304 µM (inactive); with COLO 205 it was > 304 µM (inactive); with SR it was > 304 µM (inactive). For the same molecule, the GI50 in the test with HCT-15 is more than 304 µM; in the test with LOX IMVI it was > 304 µM (inactive); in the test with CAKI-1 it was 192 µM (inactive); in the test on SF-268 it was > 304 µM (inactive); in the test on TK-10, > 304 µM (inactive); in the test with SF-295, 195 µM (inactive). Moreover, the GI50 in the test with NCI-H23, in the test with SNB-19 and in the test on CCRF-CEM was > 304 µM (inactive) in each case.

Take `COc1ccc2c3c([nH]c2c1[N+](=O)[O-])C(C)N(Cc1ccccc1)CC3` (configuration not stated): the GI50 with HL-60 was 2.18 µM (inactive); in the test on UACC-257 it was 2.39 µM (inactive); in the test on SK-MEL-2, 3.52 µM (inactive); in the test on MOLT-4 it was 3.2 µM (inactive); with COLO 205 it was 3.17 µM (inactive); in the test on SR it was 4.49 µM (inactive). The GI50 with HCT-15 is 3.61 µM; in the test on OVCAR-4, 13.9 µM (inactive); with LOX IMVI, 3.91 µM (inactive); in the test on CAKI-1 it was 2.47 µM (inactive); in the test with SF-268 it was 2.02 µM (inactive); in the test on TK-10, 9.25 µM (inactive). Further, the GI50 in the test on SF-295 was 2.02 µM (inactive); with NCI-H23, 7.94 µM (inactive); in the test with SNB-19, 9.1 µM (inactive); in the test with CCRF-CEM, 2.51 µM (inactive).

Take `CC(=O)n1ccc2c(Cl)ncnc21`: the GI50 is > 100 µM (inactive) in the test with HL-60; > 100 µM (inactive) in the test with UACC-257; > 100 µM (inactive) with SK-MEL-2; < 0.01 µM (active) in the test on SNB-75; > 100 µM (inactive) in the test with MOLT-4; > 100 µM (inactive) in the test with COLO 205. The GI50 with SR was > 100 µM (inactive); in the test with HCT-15 it was more than 100 µM; in the test on LOX IMVI it was > 100 µM (inactive); with CAKI-1 it was > 61.4 µM (inactive); in the test on SF-268 it was > 100 µM (inactive); in the test on TK-10 it was > 100 µM (inactive). Further, the GI50 in the test with SF-295, in the test with NCI-H23, in the test on SNB-19 and with CCRF-CEM was > 100 µM (inactive) each time.

With `O=C(c1ccccc1)c1nc2c(Cl)ccc(Cl)c2cc1C(Br)Br`, the GI50 was 0.419 µM (active) in the test on UACC-257; 2.01 µM (inactive) in the test on SK-MEL-2; 0.668 µM (active) with SNB-75; 1.36 µM (inactive) in the test with MOLT-4; 3.19 µM (inactive) with COLO 205; 1.59 µM (inactive) in the test with SR. The GI50 is 0.69 µM in the test with HCT-15; 1.82 µM (inactive) in the test with OVCAR-4; 1.65 µM (inactive) with LOX IMVI; 1.58 µM (inactive) in the test with CAKI-1; 1.41 µM (inactive) in the test on SF-268; 1.43 µM (inactive) in the test on TK-10. For the same molecule, the GI50 was 1.2 µM (inactive) with SF-295, 1.54 µM (inactive) in the test with SNB-19 and 0.191 µM (active) in the test with CCRF-CEM.

In the case of `O=C1C2=C(c3ccccc31)C(c1ccc(F)cc1)N1C(=O)CCSC1=N2` (configuration not stated), the GI50 with HL-60 was 65.6 µM (inactive); in the test with UACC-257 it was > 100 µM (inactive); in the test on SK-MEL-2 it was > 100 µM (inactive); with SNB-75 it was 24.4 µM (inactive); in the test on MOLT-4, 64.6 µM (inactive); in the test on COLO 205, > 100 µM (inactive). For the same molecule, the GI50 with HCT-15 was 98.4 µM; with OVCAR-4 it was 56 µM (inactive); in the test with CAKI-1 it was 69 µM (inactive); with SF-268, > 100 µM (inactive); in the test with TK-10, > 100 µM (inactive); in the test with SF-295 it was > 100 µM (inactive). The GI50 in the test with NCI-H23 is > 100 µM (inactive); in the test on SNB-19 it was > 100 µM (inactive); in the test with CCRF-CEM, 89.5 µM (inactive).

With `COc1c(C)cc2c(c1O)C1NC(C2)[C@H](O)N2C3COC(=O)[C@@]4(CS[C@@H](c5c(OC(C)=O)c(C)c6c(c53)OCO6)C12)NCCC1=C4NC2C=CC=CC12` (some centres not stated), the GI50 in the test with HL-60, in the test with SK-MEL-2, with SNB-75, with MOLT-4, in the test on COLO 205 and in the test with SR was < 0.01 µM (active) each time. Also, the GI50 is 0.0104 µM in the test with HCT-15; < 0.01 µM (active) in the test on LOX IMVI; < 0.01 µM (active) with SF-268; < 0.01 µM (active) with TK-10; < 0.01 µM (active) with SF-295; < 0.01 µM (active) with NCI-H23. For the same molecule, the GI50 in the test with SNB-19 and in the test on CCRF-CEM was < 0.01 µM (active) each time.

Take `Cc1ccc(S(=O)(=O)N2CCC2c2ccccc2)cc1` (configuration not stated): the GI50 is 7.13 µM (inactive) in the test with HL-60; 47.3 µM (inactive) in the test with UACC-257; > 100 µM (inactive) in the test on SK-MEL-2; 72.6 µM (inactive) with SNB-75; 37.8 µM (inactive) in the test on MOLT-4; > 100 µM (inactive) with COLO 205. In addition, the GI50 is more than 100 µM in the test with HCT-15; 46.6 µM (inactive) in the test with OVCAR-4; > 100 µM (inactive) with LOX IMVI; 82.2 µM (inactive) with SF-268; > 100 µM (inactive) in the test with TK-10; 74.6 µM (inactive) with SF-295. Also, the GI50 in the test on NCI-H23 is 76.4 µM (inactive); in the test with SNB-19, 68.7 µM (inactive); with CCRF-CEM it was 80.4 µM (inactive).

In the case of `CC/C=C1\N=C(c2ccc(Cl)cc2)OC1=O`, the GI50 in the test on HL-60, in the test with UACC-257, with SK-MEL-2, in the test on SNB-75, with MOLT-4 and in the test with COLO 205 was > 100 µM (inactive) throughout. Besides, the GI50 with HCT-15 was more than 100 µM; with OVCAR-4 it was > 100 µM (inactive); with LOX IMVI it was > 100 µM (inactive); in the test with CAKI-1, > 100 µM (inactive); in the test with SF-268 it was > 100 µM (inactive); with TK-10, > 100 µM (inactive). The GI50 in the test with SF-295, with NCI-H23, in the test with SNB-19 and in the test on CCRF-CEM was > 100 µM (inactive) each time.

With `COc1cc2ccnc(C#N)c2cc1OCc1ccccc1`, the GI50 in the test on UACC-257 was > 100 µM (inactive); in the test on SK-MEL-2, 64.1 µM (inactive); in the test on SNB-75, 21.9 µM (inactive); in the test on MOLT-4, > 100 µM (inactive); with HCT-15, more than 100 µM; in the test with OVCAR-4 it was 33.7 µM (inactive). Further, the GI50 is > 100 µM (inactive) in the test with CAKI-1; 39.2 µM (inactive) in the test with SF-268; > 100 µM (inactive) with TK-10; 32.1 µM (inactive) in the test on SF-295; > 100 µM (inactive) in the test with NCI-H23; 84.1 µM (inactive) in the test on SNB-19. For the same molecule, the GI50 in the test on CCRF-CEM was > 100 µM (inactive).

Consider `COc1ccc(C2=NC(C)(C)CO2)cc1`, for which the GI50 in the test with HL-60, with UACC-257, in the test on SK-MEL-2, in the test with SNB-75, with COLO 205 and in the test with SR was > 100 µM (inactive) in each case. Moreover, the GI50 in the test on HCT-15 was more than 100 µM; with OVCAR-4, > 100 µM (inactive); in the test with LOX IMVI, 82.6 µM (inactive); in the test with CAKI-1, > 100 µM (inactive); with SF-268, > 100 µM (inactive); with TK-10, > 100 µM (inactive). In addition, the GI50 in the test on SF-295, in the test on NCI-H23, in the test on SNB-19 and in the test on CCRF-CEM was > 100 µM (inactive) throughout.
